Data from patent US20100267561A1, “HERBICIDAL PYRIDAZINONE DERIVATIVES” (priority 2007, published 2010).

Legend:
Experiment in all cases: Test E pre-/postemergence plant response
Format in all cases: in vivo
[1] = system: Italian ryegrass (Lolium multiflorum); details: scale 0 to 100
Procedure, shortened: (§1)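 Plants scored visually versus controls on a 0–100 scale (100 = complete control) 14 to 21 days after treatment in the greenhouse. Test chemicals in a surfactant-containing non-phytotoxic solvent were applied to soil preemergence or to 1- to 4-leaf plants, 2–18 cm tall.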

[2] = system: annual bluegrass (Poa annua); details: scale 0 to 100
Procedure, shortened: as §1

[3] = system: broadleaf signalgrass (Brachiaria platyphylla); details: scale 0 to 100
Procedure, shortened: as §1

[4] = system: common chickweed (Stellaria media); details: Postemergence, scale 0 to 100
Procedure, shortened: as §1

[5] = system: common groundsel (Senecio vulgaris); details: Postemergence, scale 0 to 100
Procedure, shortened: as §1

[6] = system: dallisgrass (Paspalum dilatatum); details: scale 0 to 100
Procedure, shortened: as §1

[7] = system: goosegrass (Eleusine indica); details: scale 0 to 100
Procedure, shortened: as §1

[8] = system: green foxtail (Setaria viridis); details: scale 0 to 100
Procedure, shortened: as §1

[9] = system: guineagrass (Panicum maximum); details: scale 0 to 100
Procedure, shortened: as §1

[10] = system: itchgrass (Rottboellia cochinchinensis); details: scale 0 to 100
Procedure, shortened: as §1

[11] = system: johnsongrass (Sorghum halepense); details: scale 0 to 100
Procedure, shortened: as §1

[12] = system: large crabgrass (Digitaria sanguinalis); details: scale 0 to 100
Procedure, shortened: as §1

[13] = system: naked crabgrass (Digitaria nuda); details: scale 0 to 100
Procedure, shortened: as §1

[14] = system: purple nutsedge (Cyperus rotundus); details: scale 0 to 100
Procedure, shortened: as §1

[15] = system: surinam grass (Brachiaria decumbens); details: scale 0 to 100
Procedure, shortened: as §1

CCc1cc(-c2ccc(Cl)cc2)nn1-c1c(OS(C)(=O)=O)cnn(C)c1=O [Compound 39]
Plant response rating, Ryegrass, Italian ([1]; 16 g ai/ha, Preemergence): 100 | Plant response rating, Ryegrass, Italian ([1]; 31 g ai/ha, Preemergence): 100 | Plant response rating, Ryegrass, Italian ([1]; Postemergence, 8 g ai/ha): 75 | Plant response rating, Ryegrass, Italian ([1]; Postemergence, 16 g ai/ha): 98 | Plant response rating, Ryegrass, Italian ([1]; Postemergence, 31 g ai/ha): 98 | Plant response rating, Ryegrass, Italian ([1]; Postemergence, 62 g ai/ha): 100 | Plant response rating, Bluegrass ([2]; 8 g ai/ha, Preemergence): 0 | Plant response rating, Bluegrass ([2]; 16 g ai/ha, Preemergence): 0 | Plant response rating, Bluegrass ([2]; 31 g ai/ha, Preemergence): 0 | Plant response rating, Bluegrass ([2]; 62 g ai/ha, Preemergence): 0 | Plant response rating, Bluegrass ([2]; Postemergence, 8 g ai/ha): 0 | Plant response rating, Bluegrass ([2]; Postemergence, 16 g ai/ha): 0 | Plant response rating, Bluegrass ([2]; Postemergence, 31 g ai/ha): 0 | Plant response rating, Bluegrass ([2]; Postemergence, 62 g ai/ha): 0 | Plant response rating, Signalgrass ([3]; 16 g ai/ha, Preemergence): 85 | Plant response rating, Signalgrass ([3]; 31 g ai/ha, Preemergence): 95 | Plant response rating, Signalgrass ([3]; 62 g ai/ha, Preemergence): 100 | Plant response rating, Signalgrass ([3]; Postemergence, 8 g ai/ha): 35 | Plant response rating, Signalgrass ([3]; Postemergence, 16 g ai/ha): 95 | Plant response rating, Signalgrass ([3]; Postemergence, 31 g ai/ha): 95 | Plant response rating, Signalgrass ([3]; Postemergence, 62 g ai/ha): 100 | Plant response rating, Chickweed ([4]; 8 g ai/ha): 0 | Plant response rating, Chickweed ([4]; 16 g ai/ha): 0 | Plant response rating, Chickweed ([4]; 31 g ai/ha): 0 | Plant response rating, Chickweed ([4]; 62 g ai/ha): 0 | Plant response rating, Groundsel ([5]; 31 g ai/ha): 0 | Plant response rating, Groundsel ([5]; 62 g ai/ha): 0 | Plant response rating, Dallisgrass ([6]; 8 g ai/ha, Preemergence): 35 | Plant response rating, Dallisgrass ([6]; 16 g ai/ha, Preemergence): 98 | Plant response rating, Dallisgrass ([6]; 31 g ai/ha, Preemergence): 98 | Plant response rating, Dallisgrass ([6]; 62 g ai/ha, Preemergence): 100 | Plant response rating, Dallisgrass ([6]; Postemergence, 8 g ai/ha): 60 | Plant response rating, Dallisgrass ([6]; Postemergence, 16 g ai/ha): 70 | Plant response rating, Dallisgrass ([6]; Postemergence, 31 g ai/ha): 75 | Plant response rating, Dallisgrass ([6]; Postemergence, 62 g ai/ha): 75 | Plant response rating, Goosegrass ([7]; 8 g ai/ha, Preemergence): 75 | Plant response rating, Goosegrass ([7]; 16 g ai/ha, Preemergence): 80 | Plant response rating, Goosegrass ([7]; 31 g ai/ha, Preemergence): 100 | Plant response rating, Goosegrass ([7]; 62 g ai/ha, Preemergence): 100 | Plant response rating, Goosegrass ([7]; Postemergence, 8 g ai/ha): 35 | Plant response rating, Goosegrass ([7]; Postemergence, 16 g ai/ha): 70 | Plant response rating, Goosegrass ([7]; Postemergence, 31 g ai/ha): 80 | Plant response rating, Goosegrass ([7]; Postemergence, 62 g ai/ha): 95 | Plant response rating, Foxtail, Green ([8]; 8 g ai/ha, Preemergence): 75 | Plant response rating, Foxtail, Green ([8]; 16 g ai/ha, Preemergence): 90 | Plant response rating, Foxtail, Green ([8]; 31 g ai/ha, Preemergence): 98 | Plant response rating, Foxtail, Green ([8]; 62 g ai/ha, Preemergence): 100 | Plant response rating, Foxtail, Green ([8]; Postemergence, 8 g ai/ha): 60 | Plant response rating, Foxtail, Green ([8]; Postemergence, 16 g ai/ha): 70 | Plant response rating, Foxtail, Green ([8]; Postemergence, 31 g ai/ha): 75 | Plant response rating, Foxtail, Green ([8]; Postemergence, 62 g ai/ha): 95 | Plant response rating, Guineagrass ([9]; 16 g ai/ha, Preemergence): 100 | Plant response rating, Guineagrass ([9]; 31 g ai/ha, Preemergence): 100 | Plant response rating, Guineagrass ([9]; 62 g ai/ha, Preemergence): 100 | Plant response rating, Guineagrass ([9]; Postemergence, 8 g ai/ha): 80 | Plant response rating, Guineagrass ([9]; Postemergence, 16 g ai/ha): 80 | Plant response rating, Guineagrass ([9]; Postemergence, 31 g ai/ha): 90 | Plant response rating, Guineagrass ([9]; Postemergence, 62 g ai/ha): 95 | Plant response rating, Itchgrass ([10]; 16 g ai/ha, Preemergence): 60 | Plant response rating, Itchgrass ([10]; 31 g ai/ha, Preemergence): 75 | Plant response rating, Itchgrass ([10]; 62 g ai/ha, Preemergence): 80 | Plant response rating, Itchgrass ([10]; Postemergence, 8 g ai/ha): 20 | Plant response rating, Itchgrass ([10]; Postemergence, 16 g ai/ha): 25 | Plant response rating, Itchgrass ([10]; Postemergence, 31 g ai/ha): 40 | Plant response rating, Itchgrass ([10]; Postemergence, 62 g ai/ha): 60 | Plant response rating, Johnsongrass ([11]; 16 g ai/ha, Preemergence): 75 | Plant response rating, Johnsongrass ([11]; 31 g ai/ha, Preemergence): 80 | Plant response rating, Johnsongrass ([11]; 62 g ai/ha, Preemergence): 98 | Plant response rating, Johnsongrass ([11]; Postemergence, 8 g ai/ha): 35 | Plant response rating, Johnsongrass ([11]; Postemergence, 16 g ai/ha): 75 | Plant response rating, Johnsongrass ([11]; Postemergence, 31 g ai/ha): 75 | Plant response rating, Johnsongrass ([11]; Postemergence, 62 g ai/ha): 95 | Plant response rating, Crabgrass, Large ([12]; 8 g ai/ha, Preemergence): 30 | Plant response rating, Crabgrass, Large ([12]; 16 g ai/ha, Preemergence): 60 | Plant response rating, Crabgrass, Large ([12]; 31 g ai/ha, Preemergence): 98 | Plant response rating, Crabgrass, Large ([12]; 62 g ai/ha, Preemergence): 100 | Plant response rating, Crabgrass, Large ([12]; Postemergence, 8 g ai/ha): 65 | Plant response rating, Crabgrass, Large ([12]; Postemergence, 16 g ai/ha): 90 | Plant response rating, Crabgrass, Large ([12]; Postemergence, 31 g ai/ha): 95 | Plant response rating, Crabgrass, Large ([12]; Postemergence, 62 g ai/ha): 98 | Plant response rating, Crabgrass, Naked ([13]; 8 g ai/ha, Preemergence): 75 | Plant response rating, Crabgrass, Naked ([13]; 16 g ai/ha, Preemergence): 98 | Plant response rating, Crabgrass, Naked ([13]; 31 g ai/ha, Preemergence): 98 | Plant response rating, Crabgrass, Naked ([13]; 62 g ai/ha, Preemergence): 100 | Plant response rating, Crabgrass, Naked ([13]; Postemergence, 8 g ai/ha): 65 | Plant response rating, Crabgrass, Naked ([13]; Postemergence, 16 g ai/ha): 80 | Plant response rating, Crabgrass, Naked ([13]; Postemergence, 31 g ai/ha): 80 | Plant response rating, Crabgrass, Naked ([13]; Postemergence, 62 g ai/ha): 98 | Plant response rating, Nutsedge, Purple ([14]; 16 g ai/ha, Preemergence): 0 | Plant response rating, Nutsedge, Purple ([14]; 31 g ai/ha, Preemergence): 0 | Plant response rating, Nutsedge, Purple ([14]; Postemergence, 8 g ai/ha): 0 | Plant response rating, Nutsedge, Purple ([14]; Postemergence, 16 g ai/ha): 0 | Plant response rating, Nutsedge, Purple ([14]; Postemergence, 31 g ai/ha): 0 | Plant response rating, Nutsedge, Purple ([14]; Postemergence, 62 g ai/ha): 0 | Plant response rating, Surinam Grass ([15]; 16 g ai/ha, Preemergence): 100 | Plant response rating, Surinam Grass ([15]; 31 g ai/ha, Preemergence): 100 | Plant response rating, Surinam Grass ([15]; 62 g ai/ha, Preemergence): 100 | Plant response rating, Surinam Grass ([15]; Postemergence, 8 g ai/ha): 95 | Plant response rating, Surinam Grass ([15]; Postemergence, 16 g ai/ha): 100 | Plant response rating, Surinam Grass ([15]; Postemergence, 31 g ai/ha): 100 | Plant response rating, Surinam Grass ([15]; Postemergence, 62 g ai/ha): 100
